Key:
[1] = molecular target: T1, Prostaglandin G/H synthase 2 (Homo sapiens, UniProt P35354)
T1 sequence (P35354 whole entry): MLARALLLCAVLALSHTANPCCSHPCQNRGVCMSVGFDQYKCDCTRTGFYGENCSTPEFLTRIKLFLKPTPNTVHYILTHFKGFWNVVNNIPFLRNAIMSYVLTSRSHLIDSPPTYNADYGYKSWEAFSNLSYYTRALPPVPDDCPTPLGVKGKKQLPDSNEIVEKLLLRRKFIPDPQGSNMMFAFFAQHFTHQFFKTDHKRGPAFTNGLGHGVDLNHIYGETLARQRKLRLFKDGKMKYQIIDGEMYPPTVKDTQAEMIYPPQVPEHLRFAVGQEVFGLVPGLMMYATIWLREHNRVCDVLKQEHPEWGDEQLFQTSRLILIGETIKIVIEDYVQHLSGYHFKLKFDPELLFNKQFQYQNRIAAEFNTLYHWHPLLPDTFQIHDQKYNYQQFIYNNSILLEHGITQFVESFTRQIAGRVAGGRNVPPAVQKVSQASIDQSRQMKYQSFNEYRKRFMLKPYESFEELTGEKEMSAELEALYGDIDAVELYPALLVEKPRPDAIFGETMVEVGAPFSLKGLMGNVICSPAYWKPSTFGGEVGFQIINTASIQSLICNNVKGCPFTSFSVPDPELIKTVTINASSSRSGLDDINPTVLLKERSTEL

[2] = molecular target: T1, Prostaglandin G/H synthase 2; type: tissue-based, Blood
[3] = molecular target: Prostaglandin G/H synthase 1 (Homo sapiens, UniProt P23219); type: tissue-based, Blood
Chain of Prostaglandin G/H synthase 1 (P23219 whole entry): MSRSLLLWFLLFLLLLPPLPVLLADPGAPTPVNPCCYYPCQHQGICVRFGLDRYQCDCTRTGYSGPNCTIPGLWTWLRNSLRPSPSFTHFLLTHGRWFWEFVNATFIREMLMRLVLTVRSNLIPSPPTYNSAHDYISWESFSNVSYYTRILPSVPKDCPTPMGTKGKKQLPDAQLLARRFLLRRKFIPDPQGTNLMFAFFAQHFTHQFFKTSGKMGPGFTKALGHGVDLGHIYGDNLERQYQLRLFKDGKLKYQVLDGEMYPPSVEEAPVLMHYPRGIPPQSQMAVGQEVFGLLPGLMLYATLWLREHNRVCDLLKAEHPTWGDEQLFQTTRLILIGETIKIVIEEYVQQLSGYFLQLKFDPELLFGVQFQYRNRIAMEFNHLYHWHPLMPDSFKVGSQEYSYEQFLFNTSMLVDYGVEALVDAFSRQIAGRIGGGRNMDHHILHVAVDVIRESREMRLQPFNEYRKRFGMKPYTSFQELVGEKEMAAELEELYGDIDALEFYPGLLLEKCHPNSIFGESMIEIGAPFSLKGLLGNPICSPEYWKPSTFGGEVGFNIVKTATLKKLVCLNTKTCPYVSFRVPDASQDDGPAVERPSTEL
Description: Inhibition of COX-1 in human whole blood preincubated for 60 mins followed by calcium ionophore A23187 addition and measured after 30 mins by radioimmunoassay

IC50 [1] [nM] | IC50 [2] [nM] | IC50 [3] [nM] | SMILES
36000 |  |  | O=C(O)CCc1nc(-c2ccccc2)c(-c2ccccc2)o1 [OXAPROZIN]
 | 820 | 350 | Cc1ccc(C(=O)c2ccc(CC(=O)O)n2C)cc1 [TOLMETIN]
